Laboratory results as given in patent publication US20250304700A1, “ANTI-BLOOD DENDRITIC CELL ANTIGEN 2 ANTIBODIES AND USES THEREOF” (Biogen MA Inc., priority 2012, published 2025).

Columns and labels:
surface human BDCA2 = target: T1, surface human BDCA2 (Homo sapiens, UniProt Q8WTT0); assay: Direct binding dilution titration FACS on surface human BDCA2; conditions: transfected cells co-expressing BDCA2 and FcεRIγ
T1 construct: stably transfected DG44 CHO cells co-expressing full-length BDCA2 and FcεRIγcDNAs (human or cynomolgus monkey); expressed in transfected cells
T1 sequence (Q8WTT0 1-213): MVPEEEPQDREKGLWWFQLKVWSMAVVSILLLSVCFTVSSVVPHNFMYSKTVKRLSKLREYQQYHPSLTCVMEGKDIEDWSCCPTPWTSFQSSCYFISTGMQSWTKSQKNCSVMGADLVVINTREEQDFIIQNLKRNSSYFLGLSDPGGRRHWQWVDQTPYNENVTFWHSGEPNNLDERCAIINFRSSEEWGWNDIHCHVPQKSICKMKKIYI
T1 sequence (P30273 19-86 partner): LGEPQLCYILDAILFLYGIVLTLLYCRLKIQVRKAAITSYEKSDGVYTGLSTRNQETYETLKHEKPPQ
Description: Expression vectors (ch24F4 heavy chain vectors pYL670 or pYL672 and ch24F4 light chain vector pYL671) were co-transfected into 293-EBNA cells and transfected cells were tested for antibody secretion and specificity (empty vector- and a molecularly cloned irrelevant mAb vector-transfected cells served as controls). […] Direct FACS binding to surface human BDCA2 confirmed the specificity of ch24F4. The EC50 binding of both variants of ch24F4 was equivalent to that of the murine 24F4 mAb by direct binding to surface expressed human BDCA2 by dilution titration FACS assay. Stable CHO cell lines secreting ch24F4-huIgG1, kappa mAb and agly ch24F4-huIgG4/G1 hybrid kappa mAb were produced by co-transfection with pYL672/pYL671 and pYL670/pYL671, respectively.
Site-directed mutagenesis was performed using Agilent's QuikChange II mutagenesis kit following the manufacturer's recommended protocol. The C95S variant was constructed using the mutagenic primer 5′ GCAACCTATTACTGTCAACAAAGTAATGAGGATCCTCGGAC 3′ (SEQ ID NO: 38) and its reverse complement, which introduced a new HincII site, producing plasmid pEAG2678. The C95T variant was constructed using the mutagenic primer 5′ CAACCTATTACTGTCAGCAAACTAATGAAGATCCTCGGACGTTCG 3′ (SEQ ID NO: 39) and its reverse complement, which removed a BamHI site, producing plasmid pEAG2679. […]

surface rat Clec4b2 = assay: Direct FACS binding to surface rat Clec4b2; conditions: 293E cells co-transfected with rat Clec4b2/FcεRIγ
Text: To determine whether the lead hu24F4 H4/L1 C95A mAb was capable of binding to surface rat Clec4b2, 293E cells were transiently co-transfected with an EGFP reporter expression vector (pEAG1458) and either human BDCA2/FcεRIγ vectors (pEAG2420 and pEAG2413) or rat Clec4b2/FcεRIγ vectors (pCN834 and pCN844) at 1:1:1 molar ratios. At 3 days post-transfection cells were harvested and stained with the lead hu24F4 H4/L1 C95A mAb in a dilution titration direct FACS binding assay, gating on live EGFP-positive cells.

[1] = test system: BDCA2 on cynomolgus plasmacytoid dendritic cells; assay: Flow cytometric whole blood assay, BIIB059 binding to cynomolgus pDCs; design: species or system cynomolgus monkey; conditions: Alexa647 labeled BIIB059, on ice
Description: Cynomolgus monkey (Toxikon, Inc, Bedford, MA) or human peripheral blood (Biogen Idec) were collected in sodium heparin collection tubes and maintained at room temperature. A FACS staining antibody cocktail for identifying pDCs was added to each whole blood aliquot, incorporating CD20, CD14, CD123 and HLA-DR antibodies. […] Blood was incubated on ice, protected from light, for 30 min. After 30 min., each 500 μL aliquot of whole blood (cyno) or 100 μL (human) was treated with 10 mL (cyno) or 2 mL (human) of 1× Easy Lyse Buffer (Leinco Technologies) that had been incubated at 37° C. for at least one hour. After a 10-15 min. incubation at room temperature, samples were centrifuged at 1400 rpm for 5 min. The supernatant was decanted, leaving only a pellet of white blood cells (WBC). Each WBC pellet was washed with 5 mL of FACS buffer (1% BSA+0.002% NaAzide+1 mM CaCl2)+1 mM MgCl2 in PBS), and centrifuged at 1400 rpm for 5 min. The supernatant was decanted, and each WBC pellet was resuspended in 200 μL of FACS buffer and transferred to a 96-well round bottom plate (Fisher Scientific). The plate was centrifuged at 1400 rpm for 5 min. The supernatant was dumped out of the plate, and each WBC pellet was washed with 200 μL of FACS buffer. […] Each WBC pellet was resuspended in 250 μL of FACS buffer and fluorescence intensity measured on a LSRII 4-color FACS machine. […]

[2] = test system: CD62L on the surface of human pDCs; assay: CD62L surface expression on pDCs by flow cytometry; format: cell-based; conditions: whole blood, 1 hour at 37° C., no stimulation
Description: The MFI of CD62L was determined by gating on pDCs as defined by CD14−, CD20−, HLA-DR+ and CD123+.
Metalloproteinase are known to induce CD62L shedding from the surface of immune cells. […] The surface expression of CD62L was assayed by flow cytometry. GM6001 inhibited the BIIB059-mediated down-modulation CD62L in a dose dependent manner (FIG. 45).

Chain of BDCA2 on cynomolgus plasmacytoid dendritic cells (as listed by the source): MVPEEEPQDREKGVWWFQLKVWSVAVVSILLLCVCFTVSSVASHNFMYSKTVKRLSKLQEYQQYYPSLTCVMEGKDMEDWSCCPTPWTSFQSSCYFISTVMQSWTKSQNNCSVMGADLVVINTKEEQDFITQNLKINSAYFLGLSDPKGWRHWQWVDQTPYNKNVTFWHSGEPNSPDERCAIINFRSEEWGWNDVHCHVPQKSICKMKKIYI
Chain of surface rat Clec4b2 (as listed by the source): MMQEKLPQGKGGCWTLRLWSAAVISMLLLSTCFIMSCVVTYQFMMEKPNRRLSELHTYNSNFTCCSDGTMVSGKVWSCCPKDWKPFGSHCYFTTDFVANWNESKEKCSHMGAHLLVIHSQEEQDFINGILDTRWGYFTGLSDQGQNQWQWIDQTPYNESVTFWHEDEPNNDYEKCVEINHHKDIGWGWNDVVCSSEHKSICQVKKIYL
Chain of surface rat Clec4b2 (P20411 19-86 partner): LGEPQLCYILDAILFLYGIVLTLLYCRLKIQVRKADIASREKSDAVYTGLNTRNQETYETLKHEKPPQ

direct binding to surface human BDCA2, in words (surface human BDCA2) | EC50 of binding to pDCs [1] | Substance | binding to surface rat Clec4b2 (surface rat Clec4b2) | CD62L expression on the surface of pDCs [2]
“best” variants |  | 24F4S: hu24F4 H4/L1 with C95S light chain; differs from BIIB059 by 1 amino acid residue |  | 
 | 1-2 μg/mL | BIIB059: humanized IgG1 anti-BDCA2 antibody, mature heavy chain SEQ ID NO: 4 and mature light chain SEQ ID NO: 3 | no binding to surface rat Clec4b2 was detected | dose-dependent decrease
